This is an account of results in patent publication US4927829A, “Heterocyclic compounds and antiulcer agents” (Shionogi & Co., Ltd., priority 1988, dated 1990).

Where two headings read alike, the source gives them in different places.

The test system of one data set is stress ulcer. The data set can be described thus: Effect on stress ulcer (water-immersion restraint), oral. It counts as in vivo, SD rats. As to conditions: Rattus norvegicus, read-out: Inhibition rate (stress ulcer). As to the method: Male SD rats (body weight: 260-290 g) which had fasted for 24 hours were placed in a wire net-restraint cage and immersed up to the breast in water at 23° C. After 7 hours, the animals were sacrificed, and the stomach were excised. […] The test compound was suspended in 5% gum arabic solution and orally administered 30 minutes before the stress load.
Cimetidine was used as control drug.

The subject of a further data set is mice. Nature of the data set: Acute toxicity test, intraperitoneal, mice. It counts as in vivo. To be noted: n=5-6, up to 500 mg/kg. An excerpt: From the above-mentioned results it is evident that the antiulcer activity of the compounds (I) of this invention was about ten times as potent as that of control drug.
The mark [1] stands for this setting: oral, 30 minutes before stress load, male SD rats, 23° C. water immersion, 7 hours.
Where [2] appears, read: 30 mg/kg, oral, 30 minutes before stress load, male SD rats, 23° C. water immersion, 7 hours.

In the case of `CN/C(=N/CCSCc1nc[nH]c1C)NC#N` [Cimetidine, reference compound], in the data set with stress ulcer (po, 7 h), the inhibition in vivo at 30 mg/kg came out at 56%.

With `O=C(Sc1cccn2c(=O)ccnc12)N1CCSCC1` [Example 7], in the data set with stress ulcer (setting [1]), the inhibition in vivo at 3 mg/kg was found to be 46% and the inhibition in vivo at 10 mg/kg amounted to 77%. Also, the inhibition in vivo at 30 mg/kg with stress ulcer (setting [2]) was found to be 71%. Besides, the “acute toxicity (dead cases)” value with mice is on record as “no dead case even at a dose of 500 mg/kg”.

With `O=C(Sc1cccn2c(=O)ccnc12)N1CCOCC1` [Example 9], in the data set with stress ulcer (setting [1]), the inhibition in vivo at 3 mg/kg worked out at 33% and the inhibition in vivo at 10 mg/kg stood at 66%. The inhibition in vivo at 30 mg/kg with stress ulcer (setting [2]) came to 80%.

For the molecule `CCOC(=O)c1cnc2c(SC(=O)N3CCCCC3)cccn2c1=O` [Example 13], in the data set with stress ulcer (setting [1]), the inhibition in vivo at 3 mg/kg came to 34% and the inhibition in vivo at 10 mg/kg was found to be 70%. In the data set on stress ulcer (setting [2]), the inhibition in vivo at 30 mg/kg came out at 81%.

With `CCOC(=O)c1cnc2c(SC(=O)N3CCSC3)cccn2c1=O` [Example 14], the inhibition in vivo at 1 mg/kg with stress ulcer (1 mg/kg, oral, 30 minutes before stress load, male SD rats, 23° C. water immersion, 7 hours) was 45%. Moreover, in the data set on stress ulcer (setting [1]), the inhibition in vivo at 3 mg/kg was 50% and the inhibition in vivo at 10 mg/kg worked out at 68%. Besides, in the data set with stress ulcer (setting [2]), the inhibition in vivo at 30 mg/kg is 89%. Also, in the data set on mice, the “acute toxicity (dead cases)” value is “no dead case even at a dose of 500 mg/kg”.

Take `CCOC(=O)c1cnc2c(SC(=O)N3CCCC3)cccn2c1=O` [Example 16]: in the data set on stress ulcer (setting [1]), the inhibition in vivo at 3 mg/kg was found to be 40% and the inhibition in vivo at 10 mg/kg was 62%. For the same molecule, the inhibition in vivo at 30 mg/kg in the data set on stress ulcer (setting [2]) was determined as 85%.

With `O=C(Sc1cccn2c(=O)ccnc12)N1CCSC1` [Example 17], in the data set on stress ulcer (setting [1]), the inhibition in vivo at 3 mg/kg came to 74% and the inhibition in vivo at 10 mg/kg worked out at 72%. In addition, the inhibition in vivo at 30 mg/kg with stress ulcer (setting [2]) worked out at 70%. Besides, in the data set on mice, the “acute toxicity (dead cases)” value is reported as “no dead case even at a dose of 500 mg/kg”.

With `O=C(Sc1cccn2c(=O)ccnc12)N1CCCCC1` [Example 18], in the data set on stress ulcer (setting [1]), the inhibition in vivo at 3 mg/kg was 80% and the inhibition in vivo at 10 mg/kg was 76%.

For `O=C(Sc1cccn2c(=O)ccnc12)N1CCCC1` [Example 19], in the data set on stress ulcer (setting [1]), the inhibition in vivo at 10 mg/kg is 45%.
